Test results from patent US7335663B2, “Heteroaryl compounds which inhibit leukocyte adhesion mediated by α4 integrins” (Elan Pharmaceuticals, Inc., priority 2002, dated 2008).

What was measured:
α4β1 Integrin = target: T1, α4β1 Integrin (Homo sapiens, UniProt P05556+P13612); test: α4β1 Integrin Adhesion Assay: Jurkat cell adhesion to human plasma fibronectin; format: cell-based; details: Jurkat cells
T1 construct: endogenous in cells; host or cells: Jurkat cells
Procedure: 96 well plates (Costar 3590 EIA plates) were coated with human fibronectin (Gibco/BRL, cat #33016-023) at a concentration of 10 μg/mL overnight at 4° C. The plates were then blocked with a solution of bovine serum albumin (BSA; 0.3%) in saline. Jurkat™ cells (maintained in log phase growth) were labeled with Calcein AM according to the manufacturer's instructions, and suspended at a concentration of 2×10^6 cells/mL in Hepes/Saline/BSA. The cells were then exposed to test and control compounds for 30 minutes at room temperature before transfer to individual wells of the fibronectin coated plate. Adhesion was allowed to occur for 35 minutes at 37° C. The wells were then washed by gentle aspiration and pipetting with fresh saline. Fluorescence associated with the remaining adherent cells was quantified using a fluorescence plate reader at EX 485/EM 530.
Cell cultures were prepared by first splitting the stationary phase Jurkat™ cells at 1:10 on day one, and 1:2 on day two to perform assay on day 3. The cells split 1:10 on day one were split 1:4 on day 3 for a day 4 assay.
The assay plates were prepared by first making a working solution of Gibco/BRL Human Fibronectin (cat # 33016-023) in PBS++, at 10 μg/mL.
A Costar 3590 EIA plate was then coated with 50 μL/well for 2 hours at room temperature (thought it can also be left overnight at 4° C). Finally the plate was asperated and blocked with Hepes/Saline Buffer, 100 μL/well, for 1 hour at RT followed by washing three times with 150 μL of PBS++.
Compound dilutions were accomplished by preparing 1:3 serial dilutions of compounds as follows. For each plate (4 compounds/plate) 600 μL were added to 4 Bio-Rad Titertubes in a Titertube rack. Enough compound was added to each appropriate tube to give a 2× concentration using methods well known in the art. Using Falcon Flexiplates, 100 μL of Hepes/Saline buffer or human serum were added to rows B through G. A multi-channel pipetter set to 180 μL was used to with four tips spaced evenly the pipetter. Each set of four tubes was mixed 5 times and 180 μL, of 2× compound was transferred to the first column of each compound dilution in Row B, leaving Row A empty. 180 μL were added to the other wells in Row A. Serial dilutions were performed down the plate by transferring 50 μL to the next dilution and mixing 5 times, changing tips each time after mixing. Dilutions were stopped at Row F. Row G had no compound present.
A 20 μg/mL solution in Hepes/Saline buffer or human serum, of 21/6 antibody was the positive control and was set aside in a reagent trough to add to cell suspension plate.
The cell staining was accomplished by first harvesting the log-phase Jurkat™ cells by centrifugation in 50 mL tubes (1100 rpm for 5 minutes). The cells were resuspended in 50 mL PBS++, spun, and resuspend in 20 mL PBS++. The cells were stained by adding 20 μL of Calcein AM for 30 minutes R.T. The volume was brought to 50 mL with Hepes/Saline buffer and the cells were counted, spun, and resuspend to 2×10^6 cells/mL in Hepes/Saline buffer or human serum.
The compounds were incubated using the following procedure. In a new flexiplate, 65 μL of stained cells were added to Rows B through H. Then 65 μL of 2× compounds were added to the appropriate rows following the plate setup and mixed 3×. 65 μL of 2×-21/6 antibody were added to Row H and mixed 3×. Finally the plate was incubated at room temperature for 30 minutes.
Fibronectin adhesion was measured using a fluorescent plate reader at EX 485/EM 530 after the following work up procedure. After incubation, the cells were mixed 3× and 100 μL were transferred to the Fibronectin coated plates and incubated at 37° C. for about 35 minutes. Each plate was washed, row by row, by gently pipetting 100 μL of R.T. PBS++ down the sides of the wells and turning the plate 90 degrees to aspirate. This procedure was repeated for a total of 3 washes. Each well was filled with 100 μL after washing by pipetting down the side of the well. […]

[1] = Cassette dosing and serum analysis for determination of oral bioavailability; format: in vivo, Sprague Dawley (SD) rats; details: rats, oral cassette of 6 compounds, total dose 10 mg/kg, plasma samples at 4, 8 and 12 h
Procedure: The oral bioavailability was screened by dosing rats with a cassette, i.e. mixture of 6 compounds per dosing solution. The cassette included 5 test articles and a standard compound, for a total dose of 10 mg/kg. Each compound/test article was converted to the sodium salt with equimolar 1 N NaOH and dissolved in water at 2 mg/mL. The cassette was prepared by mixing equal volumes of each of the six solutions. The cassette dosing solution was mixed well and then the pH was adjusted to 7.5-9. The dosing solution was prepared the day before the study and stirred overnight at room temperature.
Male Sprague Dawley (SD) rats from Charles River Laboratories, 6-8 weeks old were used in this screen. Rats were quarantined for at least one day and had continuous access to food and water. On the night before the administration of the cassette, the rats were fasted for approximately 16 h.
Four SD rats were assigned in each cassette. A single dose of the dosing solution was administered orally to each rat. The dosing volume (5 mL/kg) and time were recorded and rats were fed 2 h after dosing.
Blood samples were collected via cardiac puncture at the following time points: 4 h, 8 h and 12 h. Immediately prior to blood collection, rats were anesthetized with CO2 gas within 10-20 seconds. After the 12-hour samples were collected, the rats were euthanized via CO2 asphyxiation followed by cervical dislocation.
Blood samples were kept in heparinized microtainer tubes under sub-ambient temperature (4° C.) before they were processed. Blood samples were centrifuged (10000 rpm for 5 minutes) and plasma samples were removed and stored in a −20° C. freezer until analyzed for drug levels. Drug levels in the plasma were analyzed using the following protocol for direct plasma precipitation.
The in vivo plasma samples were prepared in a 1.5 mL 96-well plate, by adding, in order, 100 μL of the test plasma, 150 μL of methanol, followed by vortexing for 10-20 seconds. 150 μL of 0.05 ng/μL of an Internal Standard in acetonitrile were added and vortexed for 30 seconds.
The standard curve samples were prepared in a 1.5 mL 96-well plate, by adding, in order, 100 μL of control mouse plasma, followed by 150 μL of methanol and vortexing for 10-20 seconds. 150 μL of 0.05 ng/μL of an Internal Standard in acetonitrile were added and vortexed for 30 seconds. The samples were spiked with 0-200 ng (10 concentrations) of the compound of interest in 50% methanol to obtain a standard curve range of 0.5 ng/mL-2,000 ng/mL. Again, the sample was vortexed for 30 seconds.
The samples were then spun for 20-30 minutes at 3000 rpm in an Eppendorf microfuge before 80-90% of supernatant was transferred into a clean 96-well plate. The organic solvent was then evaporated until the samples were dry (under N2 at 40° C./30-60 min (ZymarkTurbovap)).
The residue was then dissolved in 200-600 L mobile phase (50% CH3OH/0.1% TFA). LC/MS/MS was then run using a PE-Sciex API-3000 triple quadurpole mass spectrometer (SN0749707), Perkin-Elmer, Series200auto-sampler, and shimadzu 10A pump. Acquisition was done with PE-Sciex Analyst (v1.1) and data analysis and quantification were accomplished using PE-Sciex Analyst (v1.1). A 5-50 μL sample volume was injected onto a reverse phase ThermoHypersil DASH-18 column (Keystone 2.0×20 mm, 5 μm, PN: 8823025-701) using a mobile phase of 25% CH3OH, 0.1% TFA-100% CH3OH, 0.1% TFA. The run time was about 8 minutes at a flow rate of about 300 μL/minutes.
The Area Under the Curve (AUC) was calculated using the linear trapezoidal rule from t=0 to the last sampling time tx (see Handbook of Basic Pharmacokinetics, Wolfgang A. Ritschel and Gregory L. Kearns, 5th ed, 1999). AUC^0−+tx=S((Cn+Cn+1)/2))·(tn+1−tn)[(μg/mL)h]
In the case of the cassette dosing paradigm, samples at 4, 8 and 12 h post extravascular dosing, the AUC was calculated from t=0 to t=12 h.

T1 sequence (P13612 34-1032): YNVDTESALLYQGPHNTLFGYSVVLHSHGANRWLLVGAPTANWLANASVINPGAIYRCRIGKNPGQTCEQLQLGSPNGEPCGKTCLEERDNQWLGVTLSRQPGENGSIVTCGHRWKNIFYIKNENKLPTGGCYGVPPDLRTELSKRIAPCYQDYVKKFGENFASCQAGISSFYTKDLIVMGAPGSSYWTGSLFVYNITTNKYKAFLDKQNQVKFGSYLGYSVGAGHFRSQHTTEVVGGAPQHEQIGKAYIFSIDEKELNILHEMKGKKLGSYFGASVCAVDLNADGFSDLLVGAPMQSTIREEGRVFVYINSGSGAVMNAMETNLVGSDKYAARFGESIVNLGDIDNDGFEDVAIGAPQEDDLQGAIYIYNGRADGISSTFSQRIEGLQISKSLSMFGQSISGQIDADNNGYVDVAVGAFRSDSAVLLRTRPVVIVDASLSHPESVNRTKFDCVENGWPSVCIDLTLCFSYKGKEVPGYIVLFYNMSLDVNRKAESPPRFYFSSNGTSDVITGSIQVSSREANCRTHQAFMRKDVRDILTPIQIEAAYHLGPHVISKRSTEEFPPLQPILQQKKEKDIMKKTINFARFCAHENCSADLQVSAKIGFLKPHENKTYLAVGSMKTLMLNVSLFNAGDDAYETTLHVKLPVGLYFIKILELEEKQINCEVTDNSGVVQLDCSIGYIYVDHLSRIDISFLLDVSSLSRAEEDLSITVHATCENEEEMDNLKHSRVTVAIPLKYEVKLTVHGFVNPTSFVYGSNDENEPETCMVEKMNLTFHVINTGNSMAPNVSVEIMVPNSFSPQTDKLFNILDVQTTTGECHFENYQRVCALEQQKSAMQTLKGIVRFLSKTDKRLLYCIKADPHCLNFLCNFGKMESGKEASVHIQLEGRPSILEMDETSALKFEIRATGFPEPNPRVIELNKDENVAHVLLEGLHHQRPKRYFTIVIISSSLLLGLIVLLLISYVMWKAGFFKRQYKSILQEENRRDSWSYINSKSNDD
T1 sequence (P05556 21-798): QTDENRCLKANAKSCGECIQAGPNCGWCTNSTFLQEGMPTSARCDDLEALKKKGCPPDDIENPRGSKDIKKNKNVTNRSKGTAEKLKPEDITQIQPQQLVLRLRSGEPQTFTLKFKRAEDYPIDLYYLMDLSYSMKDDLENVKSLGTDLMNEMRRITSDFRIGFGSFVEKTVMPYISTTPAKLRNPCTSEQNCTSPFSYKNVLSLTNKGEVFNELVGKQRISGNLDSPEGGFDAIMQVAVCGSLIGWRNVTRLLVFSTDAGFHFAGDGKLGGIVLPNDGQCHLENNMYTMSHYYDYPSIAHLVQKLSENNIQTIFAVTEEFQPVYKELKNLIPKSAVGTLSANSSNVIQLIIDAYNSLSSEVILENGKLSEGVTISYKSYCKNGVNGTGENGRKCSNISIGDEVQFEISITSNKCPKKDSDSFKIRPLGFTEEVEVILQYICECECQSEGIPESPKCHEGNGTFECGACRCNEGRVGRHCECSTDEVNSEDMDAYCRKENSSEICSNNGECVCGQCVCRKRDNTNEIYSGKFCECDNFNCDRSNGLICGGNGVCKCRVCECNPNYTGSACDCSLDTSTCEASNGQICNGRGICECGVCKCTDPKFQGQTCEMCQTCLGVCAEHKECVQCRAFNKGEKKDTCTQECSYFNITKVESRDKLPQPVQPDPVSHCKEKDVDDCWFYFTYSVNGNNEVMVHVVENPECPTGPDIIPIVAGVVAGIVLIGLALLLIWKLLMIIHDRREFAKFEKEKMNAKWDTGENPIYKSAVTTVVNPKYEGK

2-{2-diethylamino-5-[(chlorobenzenesulfonyl)ethylamino]pyrimidin-4-ylamino}-3-(4-dimethylcarbamoyloxyphenyl)propionic acid [Example 13]
IC50, Cell Adhesion to Human Plasma Fibronectin (With human serum) (α4β1 Integrin; with human serum): 0.075 µg/mL | IC50, Cell Adhesion to Human Plasma Fibronectin (Without the human serum) (α4β1 Integrin; without human serum): 0.004 µg/mL | AUC (average AUC 0-12 h) [1]: 1.5806 (μg/mL)h
